These results are taken from ChEMBL document CHEMBL1641564, “In vitro evaluation of 5-arylidene-2-thioxo-4-thiazolidinones active as aldose reductase inhibitors” (Bioorg Med Chem Lett, 2011).

For one test, the target named is Aldo-keto reductase family 1 member B1 (Bos taurus) (UniProt P16116). Put plainly: Inhibition of bovine lens aldose reductase assessed as inhibition of […] oxidation at 11 uM by non-linear regression analysis.
For the compound `O=C1NC(=S)S/C1=C\c1ccc(OCc2ccccc2)cc1`, the inhibition is 7%.

The next test deals with T1, Aldo-keto reductase family 1 member B1 (Homo sapiens, UniProt P15121). As to the kind of experiment: Inhibition of aldose reductase at 37 uM.
`O=C1N=C(O)S/C1=C\c1ccc(Oc2ccccc2)cc1` displayed an inhibition of 41%.

The target of another test is T1, Aldo-keto reductase family 1 member B1. Put plainly: Inhibition of aldose reductase at 50 uM.
Turning to `O=C1N=C(O)S/C1=C\c1ccc(OCc2ccccc2)cc1`, the inhibition worked out at 10%.

The compound `O=C1NC(=O)/C(=C/c2ccc(-c3ccccc3)cc2)S1` showed an inhibition of 20%.

In the next test the target is Aldo-keto reductase family 1 member B1 (Bos taurus) (UniProt P16116). As to the kind of experiment: Inhibition of bovine lens aldose reductase assessed as inhibition of […] oxidation at 16 uM by non-linear regression analysis.
On to `O=C1NC(=S)S/C1=C\c1ccc2ccccc2c1`, for which the inhibition turned out to be 40%.

For another test the target is unchanged. As to the kind of experiment: Inhibition of bovine lens aldose reductase assessed as inhibition of […] oxidation at 13 uM by non-linear regression analysis.
As to `O=C1NC(=S)S/C1=C\c1ccc(-c2ccccc2)cc1`, the inhibition was determined as 28%.

The next test addresses Aldo-keto reductase family 1 member B1 (Bos taurus, UniProt P16116). Put plainly: Inhibition of bovine lens aldose reductase assessed as inhibition of […] oxidation by non-linear regression analysis.
As to `COc1cccc(/C=C2\SC(=S)N(CC(=O)O)C2=O)c1`, the IC50 worked out at 0.15 µM.

In the case of `COc1ccc(/C=C2\SC(=S)NC2=O)cc1`, the IC50 was found to be 5.23 µM.

As for `O=C1NC(=S)S/C1=C\c1ccc(Oc2ccccc2)cc1`, the IC50 amounted to 1.1 µM.

On to `O=C1NC(=S)S/C1=C\c1cccc(OCc2ccccc2)c1`, for which the IC50 stood at 1.08 µM.

Take `O=C(O)CN1C(=O)/C(=C/c2cccc(Oc3ccccc3)c2)SC1=S`: the IC50 stood at 0.41 µM.

For `O=C1NC(=S)S/C1=C\c1ccc(O)cc1`, the IC50 turned out to be 4.55 µM.

As to `O=C(O)CN1C(=O)/C(=C/c2cccc(OCc3ccccc3)c2)SC1=S`, the IC50 was determined as 0.13 µM.

As to `O=C(O)CN1C(=O)/C(=C/c2ccc(Oc3ccccc3)cc2)SC1=S`, the IC50 was found to be 0.11 µM.

For `O=C1NC(=S)S/C1=C\c1cccc2ccccc12`, the IC50 turned out to be 2.27 µM.

As to `O=C1NC(=S)S/C1=C\c1cccc(Oc2ccccc2)c1`, the IC50 was 2.94 µM.

On to `COc1cccc(/C=C2\SC(=S)NC2=O)c1`, for which the IC50 stood at 6.24 µM.

Take `O=C(O)CN1C(=O)/C(=C/c2ccc(OCc3ccccc3)cc2)SC1=S`: the IC50 came to 0.19 µM.

The target of a further test is T1, Aldo-keto reductase family 1 member B1. As to the kind of experiment: Inhibition of aldose reductase.
In turn, `O=C(O)CN1C(=O)S/C(=C\c2cccc(Oc3ccccc3)c2)C1=O` registered an IC50 of 0.13 µM.

In turn, `O=C(O)CN1C(=O)S/C(=C\c2ccc(Oc3ccccc3)cc2)C1=O` gave an IC50 of 0.82 µM.

In the case of `O=C(O)CN1C(=O)S/C(=C\c2ccc(OCc3ccccc3)cc2)C1=O`, the IC50 is 0.28 µM.

Regarding `COc1cccc(/C=C2\SC(=O)N(CC(=O)O)C2=O)c1`, the IC50 is 0.48 µM.

With `O=C1NC(=O)/C(=C/c2cccc3ccccc23)S1`, the IC50 stood at 10.7 µM.

`O=C1NC(=O)/C(=C/c2ccc(O)cc2)S1` showed an IC50 of 8.96 µM.

In the case of `O=C1NC(=O)/C(=C/c2cccc(Oc3ccccc3)c2)S1`, it took 6.14 µM to reach half-maximal inhibition (IC50).

The compound `COc1ccc(/C=C2\SC(=O)NC2=O)cc1` yielded an IC50 of 40.8 µM.

The compound `COc1cccc(/C=C2\SC(=O)NC2=O)c1` displayed an IC50 of 13.3 µM.
